Measured values: patent US7659240B2, “Mucin immobilized chromatography” (Vertex Pharmaceuticals Incorporated, priority 2002, dated 2010)
Read-outs that look alike come from different tables or passages of the source.

Assays:
[1] = tested on: mucin immobilized to IAM.PC.DD2; experiment: HPLC on MIC column (2:1 mucin to PC IAM particles): retention time, k′MIC, derived Km and Peff MIC; conditions: for Peff MIC (×10^−4 cm/s): determined by linear equation
Description: [formula] where Dm is the membrane diffusion coefficient of the solute, Km is the membrane equilibrium constant, and L is the membrane thickness (Stein, W., Transport and Diffusion Across Cell Membranes, Academic Press, Orlando, Fla. (1986)). […] Since molecular weight, MW, is proportional to molecular size, Dm may also written as,
[formula] Thus, Dm can be calculated from the molecular weight. Furthermore, Km is calculated by the following equation, Km−(Vm/Vs)k′, [4] where Vm is the volume of the mobile phase, Vs is the internal volume of the stationary phase, and k′ is the partition ratio (Pidgeon and Ong, Chemtech. June, 38-48 (1995)). The partition ratio is determined by the equation, k′−(tr−to)/to, [5] where tr is the retention time of the drug and to is the void volume of the column. Both tr and to can be experimentally determined in order to obtain k′.
Equation 2 can be used to determine Km for a given MIC medium. Both Dm and L are known from the discussion above, and Peff can be calculated for various drugs having known in vivo absorption. For example, a number of drug permeability coefficients, Peff, derived from in vivo experiments are listed in literature. […] See Example 5 below.

[2] = cited from earlier work
[3] = from literature; cited from earlier work
Caco-2 = conditions: from literature, cited from earlier work
[4] = tested on: mucin immobilized to PC IAM particles; experiment: pH and mucin layer thickness dependence of partition ratio on MIC columns (1:2 and 2:1)
Description: Samples were dissolved in mobile phase solution and filtered (filter pore size, 0.45 μm) prior to injection. […] From this measurement and a measurement of the void volume (t0) the k′MIC could be determined. In addition, from the molecular weight of the compounds, Dm could be determined. These compounds, with the exceptions noted below, were used to generate the column constant (Vm/Vs).
For these reasons, the influence of pH on drug retention times was measured on columns having two different mucin layer thicknesses, 0.32 μm (column prepared with a 1:2 wt % of mucin to PC IAM particles) and 0.36 μm (column prepared with a 2:1 wt % of mucin to PC IAM particles)(Table 8). […] The influence of pH on drug retention time was measured by using different mobile phase buffers adjusted to pH 3, 5 or 7 on either the 0.32 μm or 0.36 μm column.
Capacity factors were calculated from drug retention times collected on columns having two different mucin layer thicknesses, 0.32 μm (column prepared with a 1:2 wt % of mucin to PC IAM particles) and 0.36 μm (column prepared with a 2:1 wt % of mucin to PC IAM particles).

[5] = single-pass perfusions, cited from earlier work

## CC(C)(C)NCC(O)c1cc(O)cc(O)c1 (centres unmarked) [Terbutaline]
[1]
  δ = log k′MIC − log k′IAM: 1.14
[1]; MIC 2:1
  log k′MIC: 1.64
[1]; MIC 2:1, Table 5
  K′MIC: 43
[1]; MIC 2:1, Table 6
  K′MIC: 43.29
[1]; MIC column 2:1 mucin:IAM, MPS pH 7.4
  k′MIC: 43.2857
[1]; MIC column 2:1 mucin:IAM, MPS pH 7.4, isocratic 0.3 ml/min
  Retention Time: 3.1
[1]; Table 5
  Peff MIC (×10^−4 cm/s): 1.21 ×10^−4 cm/s
[1]; Table 6
  Peff MIC (×10^−4 cm/s): 1.21 ×10^−4 cm/s
[1]; membrane diffusion coefficient calculated from molecular weight
  Dm: 0.0036
[2]; Table 5
  % Absorbed: 60%
[2]; Table 6
  % Absorbed: 60%
[2]; Table 7
  % Absorbed: 60%
[3]
  log k′IAM: 0.50
Caco-2; Table 5
  Peff Caco-2 (×10^−6 cm/s): 0.47 ×10^−6 cm/s
Caco-2; Table 6
  Peff Caco-2 (×10^−6 cm/s): 0.47 ×10^−6 cm/s
[4]; column 1:2, 0.32 μm, pH 7, Table 9
  k′MIC (1:2): 39
[4]; column 1:2 mucin to PC IAM, 0.32 μm mucin layer, mobile phase pH 3
  (1:2) k′ (pH 3): 45.67
[4]; column 1:2 mucin to PC IAM, 0.32 μm mucin layer, mobile phase pH 5
  (1:2) k′ (pH 5): 49.00
[4]; column 1:2 mucin to PC IAM, 0.32 μm mucin layer, mobile phase pH 7
  (1:2) k′ (pH 7): 39.00
[4]; column 2:1, 0.36 μm, pH 7, Table 9
  k′MIC (2:1): 35.7
[4]; column 2:1 mucin to PC IAM, 0.36 μm mucin layer, mobile phase pH 3
  (2:1) k′ (pH 3): 34.71
[4]; column 2:1 mucin to PC IAM, 0.36 μm mucin layer, mobile phase pH 5
  (2:1) k′ (pH 5): 37.57
[4]; column 2:1 mucin to PC IAM, 0.36 μm mucin layer, mobile phase pH 7
  (2:1) k′ (pH 7): 35.67
[5]; Table 5
  Peff Loc-I-Gut (×10^−4 cm/s): 0.3 ×10^−4 cm/s
[5]; Table 6
  Peff Loc-I-Gut (×10^−4 cm/s): 0.3 ×10^−4 cm/s
[5]; Table 9
  Peff Loc-I-Gut (×10^−4 cm/s): 0.3 ×10^−4 cm/s
